Experimental data taken from patent publication EP0637237B1, “CALCIUM RECEPTOR-ACTIVE MOLECULES” (BRIGHAM AND WOMEN'S HOSPITAL, INC., priority 1993, dated 1994).
Where two headings read alike, the source gives them in different places. Values belong to the compound of their own block, whether it stands above or below them.

Assays:
C-cell Ca^2+ receptor = molecular target: T1, C-cell Ca^2+ receptor (Rattus norvegicus, UniProt P48442); type: cell-based; conditions: Table 6; rMTC 6-23 cells, fura-2; inactive = no increase in cytosolic Ca2+ at 1-5 mM
T1 sequence (P48442 20-1079): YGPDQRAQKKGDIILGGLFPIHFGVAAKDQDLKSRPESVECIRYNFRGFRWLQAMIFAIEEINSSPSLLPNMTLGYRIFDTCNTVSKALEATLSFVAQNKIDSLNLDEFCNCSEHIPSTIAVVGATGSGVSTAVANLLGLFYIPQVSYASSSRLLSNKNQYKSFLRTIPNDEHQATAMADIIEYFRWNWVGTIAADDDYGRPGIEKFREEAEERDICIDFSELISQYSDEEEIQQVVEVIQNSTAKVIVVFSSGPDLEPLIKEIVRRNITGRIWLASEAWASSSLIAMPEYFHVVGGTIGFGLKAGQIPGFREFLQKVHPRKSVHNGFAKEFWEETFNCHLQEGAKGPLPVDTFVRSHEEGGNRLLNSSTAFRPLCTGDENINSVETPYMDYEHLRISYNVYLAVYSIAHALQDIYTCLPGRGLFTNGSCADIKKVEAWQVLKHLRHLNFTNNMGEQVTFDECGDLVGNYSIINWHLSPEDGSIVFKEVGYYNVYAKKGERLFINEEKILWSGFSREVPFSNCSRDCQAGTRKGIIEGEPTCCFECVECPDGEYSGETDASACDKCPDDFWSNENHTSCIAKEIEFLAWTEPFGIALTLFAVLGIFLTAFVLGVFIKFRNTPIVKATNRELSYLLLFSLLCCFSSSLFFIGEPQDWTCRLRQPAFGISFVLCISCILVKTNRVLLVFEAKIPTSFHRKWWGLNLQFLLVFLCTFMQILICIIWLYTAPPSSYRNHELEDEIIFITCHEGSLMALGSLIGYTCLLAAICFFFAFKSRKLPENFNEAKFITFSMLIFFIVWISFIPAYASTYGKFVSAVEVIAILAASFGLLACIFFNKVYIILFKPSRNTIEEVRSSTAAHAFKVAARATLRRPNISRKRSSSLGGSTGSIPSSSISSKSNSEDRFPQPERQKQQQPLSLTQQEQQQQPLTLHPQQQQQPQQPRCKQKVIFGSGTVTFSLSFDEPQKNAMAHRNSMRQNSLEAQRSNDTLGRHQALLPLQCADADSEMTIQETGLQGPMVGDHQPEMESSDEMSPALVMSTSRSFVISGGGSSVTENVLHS

[1] = Serum ionized Ca2+ in the 5/6 nephrectomized rat (secondary hyperparathyroidism model); type: in vivo, Sprague-Dawley rats; conditions: 10 mg/kg i.p.
Excerpt: An accepted and widely used animal model of secondary hyperparathyroidism arising from chronic renal failure is the 5/6 nephrectomized rat. […] Male Sprague-Dawley rats (250 g) received a 5/6 nephrectomy and were allowed to recover for 2 weeks. At this time they were normocalcemic (due to elevated levels of serum PTH).

[2] = Serum ionized Ca2+ in parathyroidectomized rats; type: in vivo; conditions: single dose 10 mg/kg i.p., over a period of 6 hours
Excerpt: To determine the primary target tissue upon which NPS 467 acts to cause a hypocalcemic response, the para thyroid glands in rats were surgically removed.

[3] = molecular target: T2, parathyroid cell Ca^2+ receptor (Bos taurus, UniProt P35384); type: cell-based, bovine
T2 sequence (P35384 20-1085): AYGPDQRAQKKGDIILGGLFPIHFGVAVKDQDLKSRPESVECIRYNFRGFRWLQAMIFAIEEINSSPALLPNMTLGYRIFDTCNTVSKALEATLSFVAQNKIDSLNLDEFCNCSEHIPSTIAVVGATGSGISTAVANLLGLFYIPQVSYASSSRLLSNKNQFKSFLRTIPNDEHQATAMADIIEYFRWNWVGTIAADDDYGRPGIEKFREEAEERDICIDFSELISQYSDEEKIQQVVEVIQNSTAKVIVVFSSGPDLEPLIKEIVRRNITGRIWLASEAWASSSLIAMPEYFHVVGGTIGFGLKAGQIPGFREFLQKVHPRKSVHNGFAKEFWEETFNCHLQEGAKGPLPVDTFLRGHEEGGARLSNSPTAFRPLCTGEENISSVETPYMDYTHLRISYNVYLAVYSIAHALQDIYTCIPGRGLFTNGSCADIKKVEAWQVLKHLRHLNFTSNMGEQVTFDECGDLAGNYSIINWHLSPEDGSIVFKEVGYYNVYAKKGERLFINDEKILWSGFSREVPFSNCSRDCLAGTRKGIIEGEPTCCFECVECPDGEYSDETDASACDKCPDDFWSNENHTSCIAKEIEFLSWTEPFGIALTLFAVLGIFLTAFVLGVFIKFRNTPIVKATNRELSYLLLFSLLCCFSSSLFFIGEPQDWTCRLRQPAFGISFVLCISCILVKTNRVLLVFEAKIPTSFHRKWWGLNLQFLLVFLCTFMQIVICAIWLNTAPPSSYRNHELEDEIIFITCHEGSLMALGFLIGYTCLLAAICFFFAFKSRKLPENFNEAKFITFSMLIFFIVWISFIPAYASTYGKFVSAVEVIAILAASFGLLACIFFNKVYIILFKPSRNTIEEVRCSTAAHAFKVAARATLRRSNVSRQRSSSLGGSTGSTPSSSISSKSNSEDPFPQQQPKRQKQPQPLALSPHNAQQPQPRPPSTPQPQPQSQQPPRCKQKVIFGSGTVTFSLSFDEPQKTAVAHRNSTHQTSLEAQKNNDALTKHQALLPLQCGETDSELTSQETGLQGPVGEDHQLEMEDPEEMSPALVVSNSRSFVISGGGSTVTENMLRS

[4] = Serum or whole blood ionized Ca2+ and PTH in rats in vivo; parameters: species or system Sprague-Dawley rats
Excerpt: Male Sprague-Dawley rates (200 g) were maintained on a low calcium diet for one week prior to receiving test substance or vehicle as control. Blood was collected from the tail vein three hours after the intra-peritoneal administration of NPS 467. […]

[5] = molecular target: T3, parathyroid cell Ca^2+ receptor (Homo sapiens, UniProt P41180); assay: [Ca2+]i (fura-2) in human parathyroid cells; type: cell-based; conditions: human parathyroid cells (adenoma)
T3 construct: Dissociated parathyroid cells were prepared from a parathyroid adenoma obtained by surgery from a patient with primary hyperparathyroidism; endogenous in cells; host or cells: primary human parathyroid cells from adenomatous or hyperplastic glands
T3 sequence (P41180 20-1078): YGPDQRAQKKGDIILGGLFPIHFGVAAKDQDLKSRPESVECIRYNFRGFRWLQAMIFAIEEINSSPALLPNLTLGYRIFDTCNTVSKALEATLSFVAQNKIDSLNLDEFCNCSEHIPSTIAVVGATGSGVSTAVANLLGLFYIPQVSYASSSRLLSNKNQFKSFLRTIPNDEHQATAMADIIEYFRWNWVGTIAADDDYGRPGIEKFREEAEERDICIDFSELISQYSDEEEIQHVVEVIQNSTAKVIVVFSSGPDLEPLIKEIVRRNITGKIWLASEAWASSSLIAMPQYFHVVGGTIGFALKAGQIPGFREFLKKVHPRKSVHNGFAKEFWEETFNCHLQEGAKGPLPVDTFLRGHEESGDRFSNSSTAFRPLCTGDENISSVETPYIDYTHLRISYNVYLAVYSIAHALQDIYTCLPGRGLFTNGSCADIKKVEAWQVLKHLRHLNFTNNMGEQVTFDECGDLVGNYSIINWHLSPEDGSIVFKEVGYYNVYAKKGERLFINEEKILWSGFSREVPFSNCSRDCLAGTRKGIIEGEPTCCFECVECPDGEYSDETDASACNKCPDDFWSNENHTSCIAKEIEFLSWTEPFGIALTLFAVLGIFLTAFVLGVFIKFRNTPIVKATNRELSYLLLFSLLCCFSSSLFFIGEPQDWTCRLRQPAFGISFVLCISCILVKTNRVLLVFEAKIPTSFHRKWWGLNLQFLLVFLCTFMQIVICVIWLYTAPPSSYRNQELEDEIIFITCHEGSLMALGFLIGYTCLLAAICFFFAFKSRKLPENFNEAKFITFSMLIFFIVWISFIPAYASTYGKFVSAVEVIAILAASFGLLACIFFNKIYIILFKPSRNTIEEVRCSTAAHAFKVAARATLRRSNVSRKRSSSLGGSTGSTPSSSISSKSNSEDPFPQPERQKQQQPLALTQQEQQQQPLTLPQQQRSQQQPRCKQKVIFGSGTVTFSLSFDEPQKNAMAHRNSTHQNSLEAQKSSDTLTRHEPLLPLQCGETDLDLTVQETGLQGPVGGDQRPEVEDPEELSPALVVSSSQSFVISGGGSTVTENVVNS

Ca^2+ receptor = molecular target: T4, Ca^2+ receptor (Homo sapiens, UniProt P41180); assay: Cl- current in Xenopus oocytes injected with human parathyroid poly(A)+ mRNA; type: cell-based; conditions: hexacyclen 135 µM, neomycin 100 µM, NPS 382 5 mM
T4 construct: Oocytes were injected with poly(A)^+-enriched mRNA from human parathyroid tissue (hyperplastic glands from a case of secondary HPT); expressed in transfected cells; host or cells: Xenopus laevis oocytes injected with poly(A)+ mRNA from hyperplastic human parathyroid glands
T4 sequence (P41180 20-1078): T3 sequence (P41180 20-1078)

[6] = Net positive charge of the molecule; type: physicochemical; conditions: Table 1; effective charge at physiological pH
[7] = normal calcium-replete diet, 10 mg/kg i.p.

Compound: NCCCNCCCCNCCCNCCCN(O)CCCNC(=O)Cc1c[nH]c2cccc(O)c12 [NPS 015]
- EC50(µM) C-CELL (C-cell Ca^2+ receptor): inactive

- [Ca2+]i response in Ca2+-free buffer ([3]; 30 àM NPS R-467 alone, Ca2+-free buffer): no increase in [Ca^2+]i
- [Ca2+]i response in Ca2+-free buffer after neomycin ([3]; NPS R-467 30 µM added after 100 µM neomycin): did not cause an increase in [Ca^2+]i
Compound: COc1cccc([C@@H](C)NCCCc2ccccc2)c1 [NPS R-467]
- time of the fall in serum ionized Ca2+ [1]: ≤ 2 h
- serum ionized Ca2+ levels ([1]; 5/6 nephrectomy, 2 weeks recovery): 83 % of controls
- change in serum ionized Ca2+ levels [2]: did not cause any change in serum ionized Ca^2+ levels
- [Ca2+]i response in Ca2+-free buffer after neomycin ([3]; NPS R-467 30 µM added after 10 µM neomycin): elicited a transient increase in [Ca^2+]i
- potency in lowering serum Ca2+ in vivo, enantiomers compared ([4]; each compound at 5 mg/kg body weight, Fig. 42): more potent than the S-isomer in lowering serum Ca^2+ in vivo
- time serum ionized Ca2+ remained depressed [4, 7]: up to 6 hours
- time to maximal fall in serum ionized Ca2+ [4, 7]: ≤ 1 h
- decrease in serum ionized Ca2+ from the control level ([4]; normal calcium-replete diet, single dose 10 mg/kg i.p., at 1 hr): 22%

Compound: COc1cccc([C@@H](C)NCCCc2ccccc2Cl)c1 [NPS R-568]
- EC50 ([3]; Table 6, […], fura-2, inactive = no increase in cytosolic Ca2+ at 1-5 mM, read-out: EC50(µM) PARATHYROID): 0.6 µM
- EC50 [5]: 3 µM

- fold increase in potency over pentaethylenehexamine (straight chain analog) [3]: 25 fold
- EC50 ([3]; Table 1, mobilization of intracellular Ca2+ in parathyroid cells, read-out: EC50): 20 µM
- EC50 ([3]; […]): 20 µM
- Net (+) Charge [6]: +6
Compound: C1CNCCNCCNCCNCCNCCN1 [hexacyclen, 1,4,7,10,13,16-hexaaza-cyclooctadecane]
- mobilization of intracellular Ca2+ in oocytes expressing the Ca2+ receptor (Ca^2+ receptor): caused the mobilization of intracellular Ca^2+

Compound: N^1,N^1,N^5,N^14,N^14-tetrakis-(3-aminopropyl)spermine [NPS 382]
- mobilization of intracellular Ca2+ in oocytes expressing the Ca2+ receptor (Ca^2+ receptor): effective
- Net (+) Charge [6]: +8
